# Test results: patent US10047083B2, “Dihydropyrimidinoisoquinolinones and pharmaceutical compositions thereof for the treatment of inflammatory disorders” (GALAPAGOS NV, priority 2011, dated 2018)
# Molecular target: T1, GPR84 (Homo sapiens, UniProt Q9NQS5)
# T1 construct: expressed in transfected cells; membranes used
# Test: GTPγS binding assay (GPR84)
# Format: biochemical
# Conditions: membranes from stable cell line over expressing GPR84; 3,3′ di indolylmethane at EC80
# Experimental: 1.1. Cell Based Assay: GTp-γS Binding Assay.
# The following assay can be used for determination of GPR84 activation.
# The assay is performed in a 96 well plate where the following reagents are added. […] In a last step, 30 μL of a mixture consisting of membranes-GTPγS-SpA beads is added [mixture consists of 20 μg/well membranes derived from stable cell line over expressing GPR84 (membranes are pre-incubated with 0.1 μM GDP for 15 min at 4° C.), 0.1 nM [^35S]GTPγS (Perkin Elmer, NEG030) and 0.5 mg/well PVT-WGA SpA beads (Perkin Elmer, RPNQ0001)]. All components are diluted in assay buffer containing 20 mM HEPES pH 7.4; 5 mM MgCl2; 250 mM NaCl; 0.05% BSA; 75 ug/mL saponin. Reactions are incubated for 90 min at room temperature followed by centrifugation at 2000 rpm during 15 min. Plates are read on a Topcount reader (Perkin Elmer) immediately after centrifugation (readout time, 1 min/well).
# T1 sequence (Q9NQS5 whole entry): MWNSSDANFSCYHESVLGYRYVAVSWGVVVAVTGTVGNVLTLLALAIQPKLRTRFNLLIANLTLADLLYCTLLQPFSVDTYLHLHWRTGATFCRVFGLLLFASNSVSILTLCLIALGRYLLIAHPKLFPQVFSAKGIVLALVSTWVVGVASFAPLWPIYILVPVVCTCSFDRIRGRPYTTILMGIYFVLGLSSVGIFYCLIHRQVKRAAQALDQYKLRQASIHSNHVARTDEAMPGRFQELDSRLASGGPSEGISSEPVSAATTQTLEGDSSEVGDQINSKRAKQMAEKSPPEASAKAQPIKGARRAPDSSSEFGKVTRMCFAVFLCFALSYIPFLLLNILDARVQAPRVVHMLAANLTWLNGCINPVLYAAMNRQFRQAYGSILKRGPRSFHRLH
row,IC50 [nM],Compound
1,501 to 1000,"O=c1nc(OCC2COCCO2)cc2n1CCc1cc(C#Cc3ncccn3)ccc1-2 (stereo not drawn) [Compound 106, 2-([1,4]dioxan-2-ylmethoxy)-9-pyrimidin-2-ylethynyl-6,7-dihydro-pyrimido[6,1-a]isoquinolin-4-one]"
2,0.01 to 100,"O=c1nc(OC[C@@H]2COCCO2)cc2n1CCc1cc(COC3CCCCC3)ccc1-2 [Compound 137, 9-cyclohexyloxymethyl-2-((S)-1-[1,4]dioxan-2-ylmethoxy)-6,7-dihydro-pyrimido[6,1-a]isoquinolin-4-one]"
3,101 to 500,"COCCOc1ccc2c(c1)CCn1c-2cc(OC[C@@H]2COCCO2)nc1=O [Compound 129, 2-((S)-1-[1,4]dioxan-2-ylmethoxy)-9-(2-methoxy-ethoxy)-6,7-dihydro-pyrimido[6,1-a]isoquinolin-4-one]"
4,0.01 to 100,"O=c1nc(OC[C@@H]2COCCO2)cc2n1CCc1cc(CCC3(O)CCCC3)ccc1-2 [Compound 166, 2-((S)-1-[1,4]dioxan-2-ylmethoxy)-9-[2-(1-hydroxy-cyclopentyl)-ethyl]-6,7-dihydro-pyrimido[6,1-a]isoquinolin-4-one]"
5,101 to 500,"C#Cc1ccc2c(c1)CCn1c-2cc(OCC2COCCO2)nc1=O (stereo not drawn) [Compound 105, 2-([1,4]dioxan-2-ylmethoxy)-9-ethynyl-6,7-dihydro-pyrimido[6,1-a]isoquinolin-4-one]"
6,0.01 to 100,"O=c1nc(OC[C@H]2COCCO2)cc2n1CCc1cc(OCCCC3CC3)ccc1-2 [Compound 164, 9-(3-cyclopropyl-propoxy)-2-((R)-1-[1,4]dioxan-2-ylmethoxy)-6,7-dihydropyrimido[6,1-a]isoquinolin-4-one]"
7,101 to 500,"CCOCCOCC#Cc1ccc2c(c1)CCn1c-2cc(OC[C@@H]2COCCO2)nc1=O [Compound 134, 2-((S)-1-[1,4]dioxan-2-ylmethoxy)-9-[3-(2-ethoxy-ethoxy)-prop-1-ynyl]-6,7-dihydro-pyrimido[6,1-a]isoquinolin-4-one]"
8,501 to 1000,"CC1(COCc2ccc3c(c2)CCn2c-3cc(OC[C@@H]3COCCO3)nc2=O)COC1 [Compound 125, 2-((S)-1-[1,4]dioxan-2-ylmethoxy)-9-(3-methyl-oxetan-3-ylmethoxymethyl)-6,7-dihydro-pyrimido[6,1-a]isoquinolin-4-one]"
9,101 to 500,"CC(C)CCn1cc(-c2ccc3c(c2)CCn2c-3cc(OCC3COCCO3)nc2=O)cn1 (stereo not drawn) [Compound 96, 2-([1,4]dioxan-2-ylmethoxy)-9-[1-(3-methyl-butyl)-1H-pyrazol-4-yl]-6,7-dihydro-pyrimido[6,1-a]isoquinolin-4-one]"
10,0.01 to 100,"O=c1nc(OC[C@H]2COCCO2)cc2n1CCc1cc(OCc3noc(C4CC4)n3)ccc1-2 [Compound 104, 9-(5-cyclopropyl-[1,2,4]oxadiazol-3-ylmethoxy)-2-((R)-1-[1,4]dioxan-2-ylmethoxy)-6,7-dihydro-pyrimido[6,1-a]isoquinolin-4-one]"
11,501 to 1000,"NC(=O)c1cc(-c2ccc3c(c2)CCn2c-3cc(OCC3COCCO3)nc2=O)ccc1F (stereo not drawn) [Compound 28, 5-[2-([1,4]dioxan-2-ylmethoxy)-4-oxo-6,7-dihydro-4H-pyrimido[6,1-a]isoquinolin-9-yl]-2-fluoro-benzamide]"
12,101 to 500,"Cc1nc(COc2ccc3c(c2)CCn2c-3cc(OCC3COCCO3)nc2=O)no1 (stereo not drawn) [Compound 79, 2-([1,4]dioxan-2-ylmethoxy)-9-(5-methyl-[1,2,4]oxadiazol-3-ylmethoxy)-6,7-dihydro-pyrimido[6,1-a]isoquinolin-4-one]"
13,0.01 to 100,"CC(C)(C)c1cnc(COc2ccc3c(c2)CCn2c-3cc(OCC3COCCO3)nc2=O)o1 (stereo not drawn) [Compound 76, 9-(5-tert-butyl-oxazol-2-ylmethoxy)-2-([1,4]dioxan-2-ylmethoxy)-6,7-dihydro-pyrimido[6,1-a]isoquinolin-4-one]"
14,0.01 to 100,"CC(C)(C)C(O)CCc1ccc2c(c1)CCn1c-2cc(OC[C@@H]2COCCO2)nc1=O (stereo partly drawn) [Compound 146, 2-((S)-1-[1,4]dioxan-2-ylmethoxy)-9-(3-hydroxy-4,4-dimethyl-pentyl)-6,7-dihydro-pyrimido[6,1-a]isoquinolin-4-one]"
15,101 to 500,"COc1nccc(-c2ccc3c(c2)CCn2c-3cc(OCC3COCCO3)nc2=O)c1Cl (stereo not drawn) [Compound 64, 9-(3-chloro-2-methoxy-pyridin-4-yl)-2-([1,4]dioxan-2-ylmethoxy)-6,7-dihydro-pyrimido[6,1-a]isoquinolin-4-one]"
16,0.01 to 100,"O=c1nc(OCC2COCCO2)cc2n1CCc1cc(-c3ccc(N4CCCC4)nc3)ccc1-2 (stereo not drawn) [Compound 74, 2-([1,4]dioxan-2-ylmethoxy)-9-(6-pyrrolidin-1-yl-pyridin-3-yl)-6,7-dihydro-pyrimido[6,1-a]isoquinolin-4-one]"
17,101 to 500,"Cc1cc(COc2ccc3c(c2)CCn2c-3cc(OCC3COCCO3)nc2=O)on1 (stereo not drawn) [Compound 54, 2-([1,4]dioxan-2-ylmethoxy)-9-(3-methyl-isoxazol-5-ylmethoxy)-6,7-dihydro-pyrimido[6,1-a]isoquinolin-4-one]"

row,IC50 [nM],Compound
1,101 to 500,"O=c1nc(OCC2COCCO2)cc2n1CCc1cc(C#Cc3ccncc3)ccc1-2 (stereo not drawn) [Compound 53, 2-([1,4]dioxan-2-ylmethoxy)-9-pyridin-4-ylethynyl-6,7-dihydro-pyrimido[6,1-a]isoquinolin-4-one]"
2,101 to 500,"CCCn1cc(-c2ccc3c(c2)CCn2c-3cc(OCC3COCCO3)nc2=O)cn1 (stereo not drawn) [Compound 101, 2-([1,4]dioxan-2-ylmethoxy)-9-(1-propyl-1H-pyrazol-4-yl)-6,7-dihydro-pyrimido[6,1-a]isoquinolin-4-one]"
3,101 to 500,"O=c1nc(OC[C@@H]2COCCO2)cc2n1CCc1cc(NCC3CCCCC3)ccc1-2 [Compound 153, 9-(cyclohexylmethyl-amino)-2-((S)-1-[1,4]dioxan-2-ylmethoxy)-6,7-dihydro-pyrimido[6,1-a]isoquinolin-4-one]"
4,0.01 to 100,"COc1ccc(-c2ccc3c(c2)CCn2c-3cc(OCC3COCCO3)nc2=O)c(OC)n1 (stereo not drawn) [Compound 70, 9-(2,6-dimethoxy-pyridin-3-yl)-2-([1,4]dioxan-2-ylmethoxy)-6,7-dihydro-pyrimido[6,1-a]isoquinolin-4-one]"
5,0.01 to 100,"O=c1nc(OCC2COCCO2)cc2n1CCc1cc(C#CCNCc3ccccc3)ccc1-2 (stereo not drawn) [Compound 93, 9-(3-benzylamino-prop-1-ynyl)-2-([1,4]dioxan-2-ylmethoxy)-6,7-dihydro-pyrimido[6,1-a]isoquinolin-4-one]"
6,101 to 500,"C=CCOc1ccc2c(c1)CCn1c-2cc(OC[C@H]2COCCO2)nc1=O [Compound 117, 9-allyloxy-2-((R)-1-[1,4]dioxan-2-ylmethoxy)-6,7-dihydro-pyrimido[6,1-a]isoquinolin-4-one]"
7,0.01 to 100,"COc1ccc(OC)c(-c2ccc3c(c2)CCn2c-3cc(OCC3COCCO3)nc2=O)c1 (stereo not drawn) [Compound 67, 9-(2,5-dimethoxy-phenyl)-2-([1,4]dioxan-2-ylmethoxy)-6,7-dihydro-pyrimido[6,1-a]isoquinolin-4-one]"
8,101 to 500,"COc1cccc(-c2ccc3c(c2)CCn2c-3cc(OCC3COCCO3)nc2=O)c1 (stereo not drawn) [Compound 43, 2-([1,4]dioxan-2-ylmethoxy)-9-(3-methoxy-phenyl)-6,7-dihydro-pyrimido[6,1-a]isoquinolin-4-one]"
9,0.01 to 100,"COC(CCc1ccc2c(c1)CCn1c-2cc(OC[C@@H]2COCCO2)nc1=O)C(C)C (stereo partly drawn) [Compound 142, 2-((S)-1-[1,4]dioxan-2-ylmethoxy)-9-(3-methoxy-4-methyl-pentyl)-6,7-dihydro-pyrimido[6,1-a]isoquinolin-4-one]"
10,101 to 500,"CCCOCCOc1ccc2c(c1)CCn1c-2cc(OC[C@H]2COCCO2)nc1=O [Compound 172, 2-((R)-1-[1,4]Dioxan-2-ylmethoxy)-9-(2-propoxy-ethoxy)-6,7-dihydro-pyrimido[6,1-a]isoquinolin-4-one]"
11,101 to 500,"CC(O)C#Cc1ccc2c(c1)CCn1c-2cc(OCC2COCCO2)nc1=O (stereo not drawn) [Compound 87, 2-([1,4]dioxan-2-ylmethoxy)-9-(3-hydroxy-but-1-ynyl)-6,7-dihydro-pyrimido[6,1-a]isoquinolin-4-one]"
12,101 to 500,"CC(C)(O)CCc1ccc2c(c1)CCn1c-2cc(OC[C@@H]2COCCO2)nc1=O [Compound 156, 2-((S)-1-[1,4]dioxan-2-ylmethoxy)-9-(3-hydroxy-3-methyl-butyl)-6,7-dihydro-pyrimido[6,1-a]isoquinolin-4-one]"
13,0.01 to 100,"O=c1nc(OCC2COCCO2)cc2n1CCc1cc(C#CC(O)c3cccnc3)ccc1-2 (stereo not drawn) [Compound 108, 2-([1,4]dioxan-2-ylmethoxy)-9-(3-hydroxy-3-pyridin-3-yl-prop-1-ynyl)-6,7-dihydro-pyrimido[6,1-a]isoquinolin-4-one]"
14,101 to 500,"N#Cc1ccc(-c2ccc3c(c2)CCn2c-3cc(OCC3COCCO3)nc2=O)cc1 (stereo not drawn) [Compound 6, 4-[2-([1,4]dioxan-2-ylmethoxy)-4-oxo-6,7-dihydro-4H-pyrimido[6,1-a]isoquinolin-9-yl]-benzonitrile]"
15,0.01 to 100,"CC(C)C(O)CCc1ccc2c(c1)CCn1c-2cc(OC[C@@H]2COCCO2)nc1=O (stereo partly drawn) [Compound 127, 2-((S)-1-[1,4]dioxan-2-ylmethoxy)-9-(3-hydroxy-4-methyl-pentyl)-6,7-dihydro-pyrimido[6,1-a]isoquinolin-4-one]"
16,501 to 1000,"O=c1nc(OC[C@@H]2COCCO2)cc2n1CCc1cc(NCC3CCOCC3)ccc1-2 [Compound 154, 2-((S)-1-[1,4]dioxan-2-ylmethoxy)-9-[(tetrahydro-pyran-4-ylmethyl)-amino]-6,7-dihydro-pyrimido[6,1-a]isoquinolin-4-one]"
